Each molecule was assayed on Vcap cells (assay: Dihydrotestosterone (DHT) mediated XTT cell proliferation assay for screening AR antagonists using Vcap cells). Settings: 0.2 nM DHT, effect reached at high conc.
Type: cell-based
Protocol: Dihydrotestosterone (DHT) Mediated XTT Cell Proliferation Assay for Screening AR Antagonists Using Vcap cells
The Vcap cells (4×10^6 cells) were seeded in a T-75 flask containing DMEM with 15% FBS. After 72 hours, the media was removed; the cells were washed once and replaced with phenol red free DMEM containing 8% charcoal stripped serum. Then, the cells were starved in phenol red free DMEM with 8% charcoal stripped serum for 5 days. Following the starvation, the cells were harvested and seeded in 96 well plates (10×10^3 cells per well) in phenol red free DMEM with 8% charcoal stripped serum (Day 0). The cells were allowed to settle and on Day 4 they were treated with different concentrations of the compound (30 μM, 10 μM, 1 μM, 500 nM, 100 nM, 10 nM, 1 nM, 0.1 nM) in the presence of 0.2 nM DHT. DHT alone and a DMSO controls were also included. All treatments were done in triplicate. The drugs were replenished on Day 7 and the cells were allowed to grow for another 72 hours. On Day 10, the experiment was terminated by adding the XTT reagent (2,3-bis[2-methoxy-4-notro-5-sulfophenyl]-2H-tetrazolium-5-caboxyanilide inner salt) dissolved in Phenol red free DMEM without serum. The cells with the XTT reagents were incubated inside the CO2 incubator for 3-4 hours for color development; after which the readings were taken at […] using a spectramax Gemini plate reader.
Data fitting: The IC50 curves for the 8 compound concentrations were calculated with GraphPad Prism software using the sigmoidal dose-response function. (Graphpad Software, San Diego, Calif., USA).
`CNC(=O)c1ccc(N2C(=O)N(c3ccc(C#N)c(C(F)(F)F)c3)[C@@H]3CCCC[C@H]32)cn1` (racemic) [Example 53, Trans-5-(3-(4-cyano-3-(trifluoromethyl)phenyl)-2-oxooctahydro-1H-benzo[d]imidazol-1-yl)-N-methylpicolinamide (±)] was tested, and the “XTT: only 65% @ high conc” value was 65%.

Same assay, conditions: Homo sapiens, 240 h, in the presence of 0.2 nM DHT, XTT readout on Day 10, IC50 curves from 8 concentrations
Molecule `CN(C)CCCONC(=O)c1ccc(N2C(=O)N(c3ccc(C#N)c(C(F)(F)F)c3)[C@@H]3CCCC[C@H]32)cc1F` (racemic) [Example 25, Trans 4-(3-(4-cyano-3-(trifluoromethyl)phenyl)-2-oxooctahydro-1H-benzo[d]im-idazol-1-yl)-N-(3-(dimethylamino)propoxy)-2-fluorobenzamide (±)] has an IC50 of 0.0424 µM.
Work on `CCN(CC)CCONC(=O)c1ccc(N2C(=O)N(c3ccc(C#N)c(C(F)(F)F)c3)[C@@H]3CCCC[C@H]32)cc1F` (racemic) [Example 26, Trans-4-(3-(4-cyano-3-(trifluoromethyl)phenyl)-2-oxooctahydro-1H-benzo[d]im-idazol-1-yl)-N-(2-(diethylamino)ethoxy)-2-fluorobenzamide (±)] yielded an IC50 of 0.0755 µM.
In the case of `N#Cc1ccc(N2C(=O)N(c3ccc(C(=O)NOCC4CCCO4)c(F)c3)[C@@H]3CCCC[C@H]32)cc1C(F)(F)F` (mixture of isomers) [Example 27, Trans 4-(3-(4-cyano-3-(trifluoromethyl)phenyl)-2-oxooctahydro-1H-benzo[c]im-idazol-1-yl)-2-fluoro-N-((tetrahydrofuran-2-yl)methoxy)benzamide (±)], the IC50 is reported as 0.196 µM.
For `CN1CCC(ONC(=O)c2ccc(N3C(=O)N(c4ccc(C#N)c(C(F)(F)F)c4)[C@@H]4CCCC[C@H]43)cc2F)CC1` (racemic) [Example 28, Trans 4-(3-(4-cyano-3-(trifluoromethyl)phenyl)-2-oxooctahydro-1H-benzo[c]im-idazol-1-yl)-2-fluoro-N-((1-methylpiperidin-4-yl)oxy)benzamide (±)], the IC50 was 0.148 µM.
Work on `N#Cc1ccc(N2C(=O)N(c3ccc(C(N)=O)c(F)c3)[C@@H]3CCCC[C@H]32)cc1C(F)(F)F` (racemic) [Example 30, Trans-4-(3-(4-cyano-3-(trifluoromethyl)phenyl)-2-oxooctahydro-1H-benzo[d]im-idazol-1-yl)-2-fluorobenzamide (±)] yielded an IC50 of 0.0764 µM.
With `N#Cc1ccc(N2C(=O)N(c3ccc(C(=O)NCCO)c(F)c3)[C@@H]3CCCC[C@H]32)cc1C(F)(F)F` (racemic) [Example 32, Trans 4-(3-(4-cyano-3-(trifluoromethyl)phenyl)-2-oxooctahydro-1H-benzo[d]im-idazol-1-yl)-2-fluoro-N-(2-hydroxyethyl)benzamide (±)] the IC50 was 0.377 µM.
Molecule `CNC(=O)c1ccc(N2C(=O)N(c3ccc(C#N)c(C(F)(F)F)c3)[C@@H]3CCCC[C@H]32)cc1C` (racemic) [Example 39, Trans-4-(3-(4-cyano-3-(trifluoromethyl)phenyl)-2-oxooctahydro-1H-benzo[d]im-idazol-1-yl)-N,2-dimethylbenzamide (±)] has an IC50 of 0.399 µM.
For `CNC(=O)c1ccc(N2C(=O)N(c3ccc(C#N)c(C(F)(F)F)c3)[C@@H]3CCCC[C@H]32)s1` (racemic) [Example 40, Trans-5-(3-(4-cyano-3-(trifluoromethyl)phenyl)-2-oxooctahydro-1H-benzo[d]imidazol-1-yl)-N-methylthiophene-2-carboxamide (±)], the IC50 was > 10 µM.
`Cc1c(N2C(=O)N(c3ccc(C#N)c(C(F)(F)F)c3)[C@H]3CCCC[C@@H]32)ccc(C#N)c1Cl` (racemic) [Example 42, Trans-2-chloro-4-(3-(4-cyano-3-(trifluoromethyl)phenyl)-2-oxooctahydro-1H-benzo[d]imidazol-1-yl)-3-methylbenzonitrile (±)] was tested, and the IC50 was 0.168 µM.
`N#Cc1ccc(N2C(=O)N(c3cc(Cl)cc(Cl)c3)[C@@H]3CCCC[C@H]32)cc1C(F)(F)F` (racemic) [Example 43, Trans-4-(3-(3,5-dichlorophenyl)-2-oxooctahydro-1H-benzo[d]imidazol-1-yl)-2-(trifluoromethyl)benzonitrile (±)] showed an IC50 of 0.339 µM.
In the case of `N#Cc1ccc(N2C(=O)N(Cc3ccc(Cl)nc3)[C@@H]3CCCC[C@H]32)cc1C(F)(F)F` (racemic) [Example 47, Trans-4-(3-((6-chloropyridin-3-yl)methyl)-2-oxooctahydro-1H-benzo[d]imidazol-1-yl)-2-(trifluoromethyl)benzonitrile (±)], the IC50 is reported as 0.0616 µM.
For `N#Cc1ccc(CN2C(=O)N(c3ccc(C#N)c(C(F)(F)F)c3)[C@@H]3CCCC[C@H]32)cn1` (racemic) [Example 48, Trans-5-((-(4-cyano-3-(trifluoromethyl)phenyl)-2-oxooctahydro-1H-benzo[d]im-idazol-1-yl)methyl)picolinonitrile (±)], the IC50 was > 10 µM.
`N#Cc1ccc(N2C(=O)N(Cc3ccc(-n4ccnc4)nc3)[C@@H]3CCCC[C@H]32)cc1C(F)(F)F` (racemic) [Example 49, Trans-4-(34(6-(1H-imidazol-1-yl)pyridin-3-yl)methyl)-2-oxooctahydro-1H-benzo[d]imidazol-1-yl)-2-(trifluoromethyl)benzonitrile (±)] was tested, and the IC50 was 0.3 µM.
`N#Cc1ccc(N2C(=O)N(Cc3ccc(-n4cccn4)nc3)[C@@H]3CCCC[C@H]32)cc1C(F)(F)F` (racemic) [Example 50, Trans-4-(3-((6-(1H-pyrazol-1-yl)pyridin-3-yl)methyl)-2-oxooctahydro-1H-benzo[d]imidazol-1-yl)-2-(trifluoromethyl)benzonitrile (±)] was tested, and the IC50 was > 10 µM.
Molecule `N#Cc1ccc(N2C(=O)N(Cc3cc[nH]n3)[C@@H]3CCCC[C@H]32)cc1C(F)(F)F` (racemic) [Example 51, Trans-4-(3-((1H-pyrazol-3-yl)methyl)-2-oxooctahydro-1H-benzo[d]imidazol-1-yl)-2-(trifluoromethyl)benzonitrile (±)] has an IC50 of 1.08 µM.
In the case of `Cc1n[nH]cc1N1C(=O)N(c2ccc(C#N)c(C(F)(F)F)c2)[C@@H]2CCCC[C@H]21` (racemic) [Example 52, trans-4-(3-(3-methyl-1H-pyrazol-4-yl)-2-oxooctahydro-1H-benzo[d]imidazol-1-yl)-2-(trifluoromethyl)benzonitrile (±)], the IC50 is reported as > 10 µM.
In the case of `CNC(=O)c1ccc(N2C(=O)N(c3ccc(C#N)c(C(F)(F)F)c3)[C@@H]3CCCC[C@H]32)cn1` (racemic) [Example 53, Trans-5-(3-(4-cyano-3-(trifluoromethyl)phenyl)-2-oxooctahydro-1H-benzo[d]imidazol-1-yl)-N-methylpicolinamide (±)], the IC50 is reported as 0.165 µM.
Molecule `N#Cc1ccc(N2C(=O)N(c3cccnc3F)[C@@H]3CCCC[C@H]32)cc1C(F)(F)F` (racemic) [Example 59, Trans-4-(3-(2-fluoropyridin-3-yl)-2-oxooctahydro-1H-benzo[d]imidazol-1-yl)-2-(trifluoromethyl)benzonitrile (±)] has an IC50 of 1.08 µM.
Work on `N#Cc1ccc(N2C(=O)N(c3ccc(Cl)cc3)[C@@H]3CCCC[C@H]32)cc1C(F)(F)F` (racemic) [Example 60, Trans-4-(3-(4-chlorophenyl)-2-oxooctahydro-1H-benzo[d]imidazol-1-yl)-2-(trifluoromethyl)benzonitrile (±)] yielded an IC50 of 0.397 µM.
For `N#Cc1ccc(N2C(=O)N(c3ccc(S(N)(=O)=O)c(F)c3)[C@@H]3CCCC[C@H]32)cc1C(F)(F)F` (racemic) [Example 67, Trans-4-(3-(4-cyano-3-(trifluoromethyl)phenyl)-2-oxooctahydro-1H-benzo[d]imidazol-1-yl)-2-fluorobenzenesulfonamide (±)], the IC50 was 1.09 µM.
`CNC(=O)c1ccc(N2C(=O)N(c3ccc(C#N)c(C(F)(F)F)c3)[C@@H]3COCC[C@H]32)cc1F` (racemic) [Example 71, Trans-4-{3-[4-Cyano-3-(trifluoromethyl)phenyl]-2-oxo-octahydropyrano[3,4-d]imidazolidin-1-yl}-2-fluoro-N-methylbenzamide (±)] gave an IC50 of 0.655 µM.

Source: US20140329858A1, “Cyclic Urea Derivatives As Androgen Receptor Antagonists” (priority 2011, published 2014)
